We go through 44 molecules from US7943628B2, “Pyrimidine derivatives” (Pfizer Limited, priority 2005, dated 2011).

For this experiment, the target named is T1, histamine H4 receptor (Homo sapiens, UniProt Q9H3N8).
T1 construct: expressed in transfected cells; host or cells: CHO cells
In words: H4 binding, method 1 ([3H]-histamine filtration binding on CHO cell membranes). The settings on record: for Ki: H4 binding, method 1, Ki calculated from IC50 (Cheng-Prussoff); for inhibition at 10 µM: 1.5 h. Summed up:
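Membranes from CHO cells expressing human H4 receptor (20-35 μg/well) incubated 90 min at room temperature with 3 nM [3H]-histamine in 50 mM Tris-HCl pH 7.4, ± competitor. Bound label separated by filtration on PEI-soaked GF/B filters and counted by scintillation; non-specific binding with 10 μM JNJ7777120.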

T1 sequence (Q9H3N8 whole entry): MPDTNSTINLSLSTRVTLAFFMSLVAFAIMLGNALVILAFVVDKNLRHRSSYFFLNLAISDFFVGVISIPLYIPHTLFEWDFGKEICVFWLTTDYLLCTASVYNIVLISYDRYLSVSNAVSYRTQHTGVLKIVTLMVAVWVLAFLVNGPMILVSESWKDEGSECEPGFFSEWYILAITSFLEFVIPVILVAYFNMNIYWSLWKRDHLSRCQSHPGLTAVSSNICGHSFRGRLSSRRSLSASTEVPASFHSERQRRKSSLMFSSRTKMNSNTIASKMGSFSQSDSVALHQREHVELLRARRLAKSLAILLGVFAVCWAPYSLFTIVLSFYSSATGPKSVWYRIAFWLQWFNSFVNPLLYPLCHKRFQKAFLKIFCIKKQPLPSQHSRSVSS

For `CN[C@@H]1CCN(c2cc(NCC3CCC3)nc(N)n2)C1` [Example 243, N^4-(Cyclobutylmethyl)-6-[(3R)-3-(methylamino)pyrrolidin-1-yl]pyrimidine-2,4-diamine], the inhibitory constant (Ki) (commonly the equilibrium dissociation constant of an inhibitor or competing ligand from its target) is 266 nM.
The same measure, in the same setting: then `CC(C)(C)CCNc1cc(N2CC(N3CCCC3)C2)ncn1` [Example 244, N-(3,3-Dimethylbutyl)-6-(3-pyrrolidin-1-ylazetidin-1-yl)pyrimidin-4-amine], with 297 nM.
`CN[C@@H]1CCN(c2cc(NCc3cc(F)ccc3F)nc(N)n2)C1` [Example 245, N^4-(2,5-Difluorobenzyl)-6-[(3R)-3-(methylamino)pyrrolidin-1-yl]pyrimidine-2,4-diamine]: the Ki is 298 nM.
For `CC1(N)CCN(c2cc(NCC3CC3)nc(N)n2)C1` (centres unmarked) [Example 246, 6-(3-Amino-3-methylpyrrolidin-1-yl)-N^4-(cyclopropylmethyl)pyrimidine-2,4-diamine], the Ki was 301 nM.
On the same count and under the same terms, as for `C[C@@H]1CN(c2cc(NCc3ccc(F)cc3)nc(N)n2)CCN1` [Example 247, N^4-(4-Fluorobenzyl)-6-[(3R)-3-methylpiperazin-1-yl]pyrimidine-2,4-diamine], the figure is 312 nM.
Same read-out and setting: as for `CNc1cc(N2CC(C)(NC)C2)nc(N)n1` [Example 248, N^4-Methyl-6-[3-methyl-3-(methylamino)azetidin-1-yl]pyrimidine-2,4-diamine], the figure is 329 nM; as for `CN[C@@H]1CCN(c2cc(NCc3cccc(F)c3)nc(N)n2)C1` [Example 249, N^4-(3-Fluorobenzyl)-6-[(3R)-3-(methylamino)pyrrolidin-1-yl]pyrimidine-2,4-diamine], 343 nM; as for `CNC1CCCN(c2cc(NCC(C)(C)C)nc(N)n2)C1` (centres unmarked) [Example 250, N^4-(2,2-Dimethylpropyl)-6-[3-(methylamino)piperidin-1-yl]pyrimidine-2,4-diamine], 353 nM.
Still for that read-out and setting: then `C[C@H]1CN(c2cc(NCc3ccccc3)nc(N)n2)CCN1` [Example 251, N^4-Benzyl-6-[(3S)-3-methylpiperazin-1-yl]pyrimidine-2,4-diamine], with 355 nM; and `C[C@H]1CN(c2cc(NC3CC3)ncn2)CCN1` [Example 252, N-Cyclopropyl-6-[(3S)-3-methylpiperazin-1-yl]pyrimidin-4-amine], with 370 nM.
`CN[C@@H]1CCN(c2cc(NCc3ccccc3F)nc(N)n2)C1` [Example 253, N^4-(2-Fluorobenzyl)-6-[(3R)-3-(methylamino)pyrrolidin-1-yl]pyrimidine-2,4-diamine]: the Ki is 380 nM.
Still for that read-out and setting: then `CN[C@@H]1CCN(c2cc(NCc3ccccc3)nc(N)n2)C1` [Example 254, N^4-Benzyl-6-[(3R)-3-(methylamino)pyrrolidin-1-yl]pyrimidine-2,4-diamine], with 380 nM; and `Nc1nc(NCc2cccc(F)c2F)cc(N2CC[C@@H](N)C2)n1` [Example 255, 6-[(3R)-3-Aminopyrrolidin-1-yl]-N^4-(2,3-difluorobenzyl)pyrimidine-2,4-diamine], with 452 nM.
Still for that read-out and setting: as for `CN[C@@H]1CCN(c2cc(NC3CC3)nc(N)n2)C1` [Example 256, N^4-Cyclopropyl-6-[(3R)-3-(methylamino)pyrrolidin-1-yl]pyrimidine-2,4-diamine], the figure is 501 nM.
Take `CCNc1cc(N2CC(C)(NC)C2)nc(N)n1` [Example 257, N^4-Ethyl-6-[3-methyl-3-(methylamino)azetidin-1-yl]pyrimidine-2,4-diamine]: testing at 10 µM gave an inhibition of 100%.
`CCCNc1cc(N2CCN[C@@H](C)C2)ncn1` [Example 258, 6-[(3S)-3-Methylpiperazin-1-yl]-N-propylpyrimidin-4-amine]: the Ki is 509 nM.
Same read-out and setting: then `C[C@@H]1CN(c2cc(NCc3ccccc3)nc(N)n2)CCN1` [Example 259, N^4-Benzyl-6-[(3R)-3-methylpiperazin-1-yl]pyrimidine-2,4-diamine], with 577 nM.
In the case of `CC(C)(C)CNc1cc(N2CCN(C3CCCCC3)CC2)ncn1` [Example 260, 6-(4-Cyclohexylpiperazin-1-yl)-N-(2,2-dimethylpropyl)pyrimidin-4-amine], testing at 10 µM gave an inhibition of 100%.
Consider `CNC1(C)CN(c2cc(NC(C)C)ncn2)C1` [Example 261, N-Isopropyl-6-[3-methyl-3-(methylamino)azetidin-1-yl]pyrimidin-4-amine], for which the Ki is 617 nM.
The same measure, in the same setting: as for `CNc1cc(N2CC[C@@H](NC)C2)ncn1` [Example 262, N-Methyl-6-[(3R)-3-(methylamino)pyrrolidin-1-yl]pyrimidin-4-amine], the figure is 623 nM; as for `CNC1CN(c2cc(N3CCOC[C@H]3C)nc(N)n2)C1` [Example 263, 4-[3-(Methylamino)azetidin-1-yl]-6-[(3R)-3-methylmorpholiN^4-yl]pyrimidin-2-amine], 626 nM; as for `CCCNc1cc(N2CCC(C)(N)C2)nc(N)n1` (centres unmarked) [Example 264, 6-(3-Amino-3-methylpyrrolidin-1-yl)-N^4-propylpyrimidine-2,4-diamine], 704 nM.
On the same count and under the same terms, as for `CCNc1cc(N2CCC(C)(N)C2)nc(N)n1` (centres unmarked) [Example 265, 6-(3-Amino-3-methylpyrrolidin-1-yl)-N^4-ethylpyrimidine-2,4-diamine], the figure is 705 nM.
The same measure, in the same setting: then `CCCNc1cc(N2CCC(N)CC2)nc(N)n1` [Example 266, 6-(4-Aminopiperidin-1-yl)-N^4-propylpyrimidine-2,4-diamine], with 708 nM; and `C[C@@H]1CN(c2cc(NCc3cccc(F)c3)nc(N)n2)CCN1` [Example 267, N^4-(3-Fluorobenzyl)-6-[(3R)-3-methylpiperazin-1-yl]pyrimidine-2,4-diamine], with 715 nM.
Regarding `CNC1CN(c2cc(N3CCOCC3)nc(N)n2)C1` [Example 268, 4-[3-(Methylamino)azetidin-1-yl]-6-morpholin-4-ylpyrimidin-2-amine], at 10 µM the inhibition was 16%.
Regarding `Nc1nc(NC2CC2)cc(N2CCC(N)CC2)n1` [Example 269, 6-(4-Aminopiperidin-1-yl)-N^4-cyclopropylpyrimidine-2,4-diamine], the Ki was 839 nM.
With `CN[C@@H]1CCN(c2cc(NCc3c(F)cccc3F)nc(N)n2)C1` [Example 271, N^4-(2,6-Difluorobenzyl)-6-[(3R)-3-(methylamino)pyrrolidin-1-yl]pyrimidine-2,4-diamine], the Ki was 870 nM.
For `CN[C@@H]1CCN(c2cc(NCc3cccc(F)c3F)nc(N)n2)C1` [Example 272, N^4-(2,3-Difluorobenzyl)-6-[(3R)-3-(methylamino)pyrrolidin-1-yl]pyrimidine-2,4-diamine], the Ki is 901 nM.
For the molecule `CN[C@@H]1CCN(c2cc(NCc3cc(F)cc(F)c3)nc(N)n2)C1` [Example 273, N^4-(3,5-Difluorobenzyl)-6-[(3R)-3-(methylamino)pyrrolidin-1-yl]pyrimidine-2,4-diamine], the Ki was 950 nM.
Still for that read-out and setting: then `CC(C)(C)CCNc1cc(N[C@H]2CCN(Cc3ccc(CO)o3)C2)ncn1` [Example 274, (5-{[(3S)-3-({6-[(3,3-Dimethylbutyl)amino]pyrimidin-4yl}amino)pyrrolidin--1-yl]methyl}-2-furyl)methanol], with 1070 nM; and `CN[C@@H]1CCN(c2cc(N3CC(F)(F)C3)nc(N)n2)C1` [Example 275, 4-(3,3-Difluoroazetidin-1-yl)-6-[(3R)-3-(methylamino)pyrrolidin-1-yl]pyrimidin-2-amine], with 1160 nM.
As for `CNC1CN(c2cc(NCC3CC3)nc(NCC3CC3)n2)C1` [Example 276, N,N′-Bis(cyclopropylmethyl)-6-[3-(methylamino)azetidin-1-yl]pyrimidine-2,4-diamine], where the note is “at 3.16 μM”, the “Method 1, % at 3.16 μM” value turned out to be 14% at 3.16 μM.
Take `CN[C@@H]1CCN(c2cc(NCc3ccc(F)c(F)c3)nc(N)n2)C1` [Example 277, N^4-(3,4-Difluorobenzyl)-6-[(3R)-3-(methylamino)pyrrolidin-1-yl]pyrimidine-2,4-diamine]: the Ki was 1230 nM.
The same measure, in the same setting: as for `CNC1CCCN(c2cc(NCC(C)C)nc(N)n2)C1` (centres unmarked) [Example 278, N^4-Isobutyl-6-[3-(methylamino)piperidin-1-yl]pyrimidine-2,4-diamine], the figure is 1260 nM.
On the same count and under the same terms, as for `CC(C)(C)CCNc1cc(N2CCCNCC2)ncn1` [Example 280, 6-(1,4-Diazepan-1-yl)-N-(3,3-dimethylbutyl)pyrimidin-4-amine], the figure is 1430 nM; as for `c1ccc(CNc2cc(N[C@H]3CCNC3)ncn2)cc1` [Example 281, N-Benzyl-N′-[(3S)-pyrrolidin-3-yl]pyrimidine-4,6-diamine], 1550 nM; as for `CN[C@@H]1CCN(c2cc(N3CCOCC3)nc(N)n2)C1` [Example 282, 4-[(3R)-3-(Methylamino)pyrrolidin-1-yl]-6-morpholin-4-ylpyrimidin-2-amine], 1660 nM.
Still for that read-out and setting: as for `Nc1nc(NCC2CC2)cc(N2CCC(N)CC2)n1` [Example 283, 6-(4-Aminopiperidin-1-yl)-N^4-(cyclopropylmethyl)pyrimidine-2,4-diamine], the figure is 1700 nM.
On to `CNc1cc(N2CCC(N)CC2)nc(N)n1` [Example 284, 6-(4-Aminopiperidin-1-yl)-N^4-methylpyrimidine-2,4-diamine], for which the Ki was 1720 nM.
Still for that read-out and setting: then `c1nc(NCC2CC2)cc(N2CCNCC2)n1` [Example 285, N-(Cyclopropylmethyl)-6-piperazin-1-ylpyrimidin-4-amine], with 1800 nM.
Still for that read-out and setting: then `CN[C@@H]1CCN(c2cc(NC(C)C)nc(N)n2)C1` [Example 286, N^4-lsopropyl-6-[(3R)-3-(methylamino)pyrrolidin-1-yl]pyrimidine-2,4-diamine], with 1940 nM; and `CC(C)(C)CNc1cc(N2CC(N3CCOCC3)C2)nc(N)n1` [Example 287, N^4-(2,2-Dimethylpropyl)-6-(3-morpholin-4-ylazetidin-1-yl)pyrimidine-2,4-diamine], with 2000 nM; and `CN1CCCC(Nc2cc(NCCC(C)(C)C)ncn2)C1` (centres unmarked) [Example 288, N-(3,3-Dimethylbutyl)-N′-(1-methylpiperidin-3-yl)pyrimidine-4,6-diamine], with 2400 nM.
